EC50 data for 29 molecules are collected here from patent publication US9133163B2, “Dihydropyrazole GPR40 modulators” (Bristol-Myers Squibb Company, priority 2012, dated 2015).

The target of this experiment is hGPR40 (Homo sapiens, UniProt O14842). The experiment is described as follows: FDSS-based intracellular calcium assay. The class given is cell-based. Also noted: 3xFLAG; expressed in transfected cells. The settings on record: intracellular Ca2+ response, cells expressing GPR40. The method, then:
FDSS-Based Intracellular Calcium Assay
Compounds are dissolved in DMSO and diluted to desired concentrations with assay buffer and added to the cells as 3× solution (20 μL per well). Run fluorescence/luminescence reader FDSS (Hamamatsu) to read intracellular Ca^2+ response.

Chain of hGPR40 (O14842 whole entry): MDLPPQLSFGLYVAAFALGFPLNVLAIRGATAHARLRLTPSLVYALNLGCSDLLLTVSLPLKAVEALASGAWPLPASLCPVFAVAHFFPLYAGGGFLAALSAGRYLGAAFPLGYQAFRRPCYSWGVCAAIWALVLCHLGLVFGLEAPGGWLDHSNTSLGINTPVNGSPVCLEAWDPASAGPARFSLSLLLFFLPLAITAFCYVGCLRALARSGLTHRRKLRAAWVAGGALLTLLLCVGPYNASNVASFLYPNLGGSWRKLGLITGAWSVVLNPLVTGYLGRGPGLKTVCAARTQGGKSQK

Consider `COc1cc(Cl)cc(N2CCC(Oc3ccc(N4N=C(C(F)(F)F)[C@@H](C)[C@@H]4CC(=O)O)cc3)CC2)n1` [Example 78, 2-((4S,5S)-1-(4-((1-(4-Chloro-6-methoxypyridin-2-yl)piperidin-4-yl)oxy)phenyl)-4-methyl-3-(trifluoromethyl)-4,5-dihydro-1H-pyrazol-5-yl)acetic acid], for which the EC50 worked out at 1990 nM. Regarding `C[C@@H]1C(C(F)(F)F)=NN(c2ccc(OC3CCN(c4cc(O)ccc4F)CC3)cc2)[C@H]1CC(=O)O` [Example 102, 2-((4S,5S)-1-(4-((1-(2-Fluoro-5-hydroxyphenyl)piperidin-4-yl)oxy)phenyl)-4-methyl-3-(trifluoromethyl)-4,5-dihydro-1H-pyrazol-5-yl)acetic acid], the EC50 came out at 190 nM. For the molecule `CCOc1ccc(F)c(N2CCC(Oc3ccc(N4N=C(C(F)(F)F)[C@@H](C)[C@@H]4CC(=O)O)cc3)C(CC)C2)c1` (single isomer, unassigned) [Example 25 (Isomer 1)], the EC50 is 1020 nM. As for `COc1cc(N2CCC(Oc3ccc(N4N=C(C(F)(F)F)[C@@H](C)[C@@H]4CC(=O)O)cc3)C(F)C2)c(Cl)cn1` (single isomer, unassigned) [Example A1, Isomer 2], the figure is 218 nM; as for `COc1ccc(F)c(N2CCC(Oc3ccc(N4N=C(C(F)(F)F)[C@@H](CC(C)C)[C@@H]4CC(=O)O)cc3)CC2)c1` (single isomer, unassigned) [Example 89, Isomer 1], 7960 nM; as for `C[C@@H]1C(C(F)(F)F)=NN(c2ccc(OC3CCN(c4ccccn4)CC3)cc2)[C@H]1CC(=O)O` [Example 74, 2-((4S,5S)-4-Methyl-1-(4-((1-(pyridin-2-yl)piperidin-4-yl)oxy)phenyl)-3-(trifluoromethyl)-4,5-dihydro-1H-pyrazol-5-yl)acetic acid], 2610 nM. The same measure for `CCC1C(C(F)(F)F)=NN(c2ccc(OC3CCN(c4cc(OC)ncc4Cl)CC3C)cc2)C1CC(=O)O` (single isomer, unassigned) [Example 86, Isomer 2, 2-(1-(4-((1-(5-Chloro-2-methoxypyridin-4-yl)-3-methylpiperidin-4-yl)oxy)phenyl)-4-ethyl-3-(trifluoromethyl)-4,5-dihydro-1H-pyrazol-5-yl)acetic acid]: 599 nM. As for `C[C@@H]1C(C(F)(F)F)=NN(c2ccc(OC3CCN(c4ccc(F)cc4)CC3)cc2)[C@H]1CC(=O)O` [Example 49, 2-((4S,5S)-1-(4-((1-(4-Fluorophenyl)piperidin-4-yl)oxy)phenyl)-4-methyl-3-(trifluoromethyl)-4,5-dihydro-1H-pyrazol-5-yl)acetic acid], the figure is 2650 nM; as for `CCC1C(C(F)(F)F)=NN(c2ccc(OC3CCN(c4cc(OC)ncc4Cl)CC3C)cc2)C1CC(=O)O` (single isomer, unassigned) [Example 86, Isomer 1, 2-(1-(4-((1-(5-Chloro-2-methoxypyridin-4-yl)-3-methylpiperidin-4-yl)oxy)phenyl)-4-ethyl-3-(trifluoromethyl)-4,5-dihydro-1H-pyrazol-5-yl)acetic acid], 73 nM. On to `Cc1ccc(Cl)c(N2CCC(Oc3ccc(N4N=C(C(F)(F)F)[C@@H](C)[C@@H]4CC(=O)O)cc3)CC2)c1` [Example 60, 2-((4S,5S)-1-(4-((1-(2-Chloro-5-methylphenyl)piperidin-4-yl)oxy)phenyl)-4-methyl-3-(trifluoromethyl)-4,5-dihydro-1H-pyrazol-5-yl)acetic acid], for which the EC50 was 364 nM. The same measure for `COc1cc(F)cc(N2CCC(Oc3ccc(N4N=C(C(F)(F)F)[C@@H](C)[C@@H]4CC(=O)O)cc3)CC2)n1` [Example 80, 2-((4S,5S)-1-(4-((1-(4-Fluoro-6-methoxypyridin-2-yl)piperidin-4-yl)oxy)phenyl)-4-methyl-3-(trifluoromethyl)-4,5-dihydro-1H-pyrazol-5-yl)acetic acid]: 2560 nM; for `C[C@@H]1C(C(F)(F)F)=NN(c2ccc(OC3CCN(c4ccc(F)cc4Cl)CC3)cc2)[C@H]1CC(=O)O` [Example 62, 2-((4S,5S)-1-(4-((1-(2-Chloro-4-fluorophenyl)piperidin-4-yl)oxy)phenyl)-4-methyl-3-(trifluoromethyl)-4,5-dihydro-1H-pyrazol-5-yl)acetic acid]: 382 nM.

In the case of `CCOc1cc(N2CC[C@H](Oc3ccc(N4N=C(C(F)(F)F)[C@@H](C)[C@@H]4CC(=O)O)cc3)[C@@H](C)C2)c(Cl)cn1` [Example 82, 2-((4S,5S)-1-(4-(((3S,4S)-1-(5-Chloro-2-ethoxypyridin-4-yl)-3-methylpiperidin-4-yl)oxy)phenyl)-4-methyl-3-(trifluoromethyl)-4,5-dihydro-1H-pyrazol-5-yl)acetic acid], the EC50 worked out at 760 nM. As for `CC(C)COc1cc(F)c(F)c(N2CCC(Oc3ccc(N4N=C(C(F)(F)F)[C@@H](C)[C@@H]4CC(=O)O)cc3)CC2)c1` [Example 18, 2-((4S,5S)-1-(4-((1-(2,3-Difluoro-5-isobutoxyphenyl)piperidin-4-yl)oxy)phenyl)-4-methyl-3-(trifluoromethyl)-4,5-dihydro-1H-pyrazol-5-yl)acetic acid], the figure is 4760 nM.

Consider `C[C@@H]1C(C(F)(F)F)=NN(c2ccc(OC3CCN(c4ccccc4Cl)CC3)cc2)[C@H]1CC(=O)O` [Example 37, 2-((4S,5S)-1-(4-((1-(2-Chlorophenyl)piperidin-4-yl)oxy)phenyl)-4-methyl-3-(trifluoromethyl)-4,5-dihydro-1H-pyrazol-5-yl)acetic acid], for which the EC50 is 448 nM.

Turning to `COc1cc(N2CC[C@H](Oc3ccc(N4N=C(C(F)(F)F)[C@@H](C)[C@@H]4CC(=O)O)cc3)[C@@H](C)C2)c(Cl)cn1` [Example 81, Isomer 1, 2-((4S,5S)-1-(4-((1-(5-Chloro-2-methoxypyridin-4-yl)-3-methylpiperidin-4-yl)oxy)phenyl)-4-methyl-3-(trifluoromethyl)-4,5-dihydro-1H-pyrazol-5-yl)acetic acid], the 50% effective concentration (EC50) worked out at 319 nM. As for `COc1ccc(F)c(N2CCC(Oc3ccc(N4N=C(C(F)(F)F)[C@@H](C)[C@@H]4CC(=O)O)cc3)C(F)C2)c1` (single isomer, unassigned) [Example 57 (Isomer 1)], the figure is 292 nM; as for `COc1ccc(F)c(N2CCC(Oc3ccc(N4N=C(c5ncccn5)C(C)C4CC(=O)O)cc3)CC2)c1` (single isomer, unassigned) [Example 22, Isomer 1, 2-(1-(4-((1-(2-Fluoro-5-methoxyphenyl)piperidin-4-yl)oxy)phenyl)-4-methyl-3-(pyrimidin-2-yl)-4,5-dihydro-1H-pyrazol-5-yl)acetic acid], 2040 nM; as for `CCOc1cc(F)c(F)c(N2CCC(Oc3ccc(N4N=C(C(F)(F)F)[C@@H](C)[C@@H]4CC(=O)O)cc3)C(C)C2)c1` (single isomer, unassigned) [Example 10 (Isomer 1)], 1200 nM. As to `CC[C@@H]1C(C(F)(F)F)=NN(c2ccc(OC3CCN(c4cc(OC)ccc4F)CC3)cc2)[C@H]1CC(=O)O` (single isomer, unassigned) [Example 88, Isomer 2], the EC50 was 7450 nM.

Take `Cc1ccc(F)c(N2CCC(Oc3ccc(N4N=C(C(F)(F)F)[C@@H](C)[C@@H]4CC(=O)O)cc3)CC2)n1` [Example 61, 2-((4S,5S)-1-(4-((1-(3-Fluoro-6-methylpyridin-2-yl)piperidin-4-yl)oxy)phenyl)-4-methyl-3-(trifluoromethyl)-4,5-dihydro-1H-pyrazol-5-yl)acetic acid]: the EC50 amounted to 366 nM. As for `C[C@@H]1C(C(F)(F)F)=NN(c2ccc(OC3CCN(c4ccc(Cl)cc4)CC3)cc2)[C@H]1CC(=O)O` [Example 56, 2-((4S,5S)-1-(4-((1-(4-Chlorophenyl)piperidin-4-yl)oxy)phenyl)-4-methyl-3-(trifluoromethyl)-4,5-dihydro-1H-pyrazol-5-yl)acetic acid], the figure is 6270 nM; as for `COc1ccc(F)c(N2CCC(Oc3ccc(N4N=C(C(F)(F)F)[C@@H](C)[C@@H]4CC(=O)O)cc3)C(F)C2)c1` (single isomer, unassigned) [Example 57 (Isomer 2)], 119 nM; as for `COc1ccc(Cl)c(N2CCC(Oc3ccc(N4N=C(C(F)(F)F)[C@@H](C)[C@@H]4CC(=O)O)cc3)CC2)c1` [Example 33, 2-((4S,5S)-1-(4-((1-(2-Chloro-5-methoxyphenyl)piperidin-4-yl)oxy)phenyl)-4-methyl-3-(trifluoromethyl)-4,5-dihydro-1H-pyrazol-5-yl)acetic acid], 103 nM. As for `Cc1ccccc1N1CCC(Oc2ccc(N3N=C(C(F)(F)F)[C@@H](C)[C@@H]3CC(=O)O)cc2)CC1` [Example 39, 2-((4S,5S)-4-Methyl-1-(4-((1-(o-tolyl)piperidin-4-yl)oxy)phenyl)-3-(trifluoromethyl)-4,5-dihydro-1H-pyrazol-5-yl)acetic acid], the figure is 498 nM.

Take `COc1cc(F)c(F)c(N2CCC(Oc3ccc(N4N=C(C(F)(F)F)[C@@H](C)[C@@H]4CC(=O)O)cc3)C(C)C2)c1` (single isomer, unassigned) [Example 8 (Isomer 2)]: the EC50 was 237 nM. The same measure for `C[C@@H]1C(C(F)(F)F)=NN(c2ccc(OC3CCN(c4cc(F)ccc4Cl)CC3)cc2)[C@H]1CC(=O)O` [Example 59, 2-((4S,5S)-1-(4-((1-(2-Chloro-5-fluorophenyl)piperidin-4-yl)oxy)phenyl)-4-methyl-3-(trifluoromethyl)-4,5-dihydro-1H-pyrazol-5-yl)acetic acid]: 361 nM. The same measure for `COc1cc(C)c(N2CCC(Oc3ccc(N4N=C(C(F)(F)F)[C@@H](C)[C@@H]4CC(=O)O)cc3)CC2)c(C)c1` [Example 51, 2-((4S,5S)-1-(4-((1-(4-Methoxy-2,6-dimethylphenyl)piperidin-4-yl)oxy)phenyl)-4-methyl-3-(trifluoromethyl)-4,5-dihydro-1H-pyrazol-5-yl)acetic acid]: 3060 nM; for `C[C@@H]1C(C(F)(F)F)=NN(c2ccc(OC3CCN(c4cccnc4)CC3)cc2)[C@H]1CC(=O)O` [Example 75, 2-((4S,5S)-4-Methyl-1-(4-((1-(pyridin-3-yl)piperidin-4-yl)oxy)phenyl)-3-(trifluoromethyl)-4,5-dihydro-1H-pyrazol-5-yl)acetic acid]: 7680 nM.
